Converted amounts (≈) assume the structure as drawn.
Columns and labels:
recombinant protein MYT1 = recombinant protein MYT1 (Homo sapiens (Human), UniProt Q99640); assay: In vitro assay for inhibiting MYT1 kinase activity (ADP-GLO); type: biochemical; settings: 10 μM ATP, read-out: Inhibitory activity against recombinant protein MYT1 IC50
Description: Recombinant MYT1 protein and the compounds were pre-incubated at room temperature for 15 min, and 10 μM ATP was then added to start the reaction. The mixture was incubated at room temperature for another 60 min, and the ADP-GLO reagent from Promega was then added. The resulting mixture was incubated in the dark for 40 min, a detection solution was then added, and the mixture was incubated for another 45-60 min. The chemiluminescence was determined using ENVISION. The inhibition rate and IC50 were calculated compared to the DMSO group.

MIA PaCa-2 cells [1] = assay: In vitro anti-proliferative activity against MIA PaCa-2 cells (compound alone); type: cell-based; settings: 72 h, intracellular ATP content
Description: (§1) MIA PaCa-2 cells were seeded on a 384-well plate at 3000 cells/well. After overnight adherence culture, DMSO or the compounds serially diluted 1:5 from 10 μM were added. The viability was assessed 72 h after dosing by measuring the intracellular ATP content. The inhibition percentage of viable cells by the compounds was calculated by comparing with the DMSO group, and the IC50 value was calculated.

MIA PaCa-2 cells [2] = assay: In vitro anti-proliferative activity in combination with gemcitabine against MIA PaCa-2 cells; type: cell-based; settings: with 20 nM gemcitabine
Description: as §1, with “cells/well, and 20 nM gemcitabine was added.” for “cells/well.”, “1000 nM” for “10 μM”

[3] = In vivo pharmacokinetic experiment in mice; parameters: species or system CD-1 female mice; settings: mouse
Description: CD-1 female mice aged 7 to 10 weeks were intravenously administered and orally administered at a dose of 2 mg/kg and 10 mg/kg, respectively. The mice were fasted for at least 12 h before the administration and given food 4 h after the administration, and they were given ad libitum access to water during the experiment. On the day of the experiment, animals in the intravenous group were administered the corresponding compound by single injection via the tail vein at an administration volume of 10 mL/kg. Animals in the oral group were administered the corresponding compound by single intragastric injection at an administration volume of 10 mL/kg. The animals were weighed before administration, and the administration volume was calculated according to the body weight. The sample collection time was 0.083 h (injection group), 0.167 h, 0.5 h, 1 h, 2 h, 4 h, 8 h, and 24 h. About 200 μL of whole blood was collected through the submaxillary venous plexus at each time point and used to prepare plasma for concentration determination by high-performance liquid chromatography-tandem mass spectrometry (LC-MS/MS). All animals were euthanized with CO2 anesthesia after the PK samples were collected at the last time point. The plasma concentrations were processed using a non-compartmental model of Phoenix WinNonlin™ version 8.3 (Certara) pharmacokinetic software, and the pharmacokinetic parameters were calculated using a linear-log trapezoidal method.

MDCK-MDR1 = assay: in vitro; settings: MDCK-MDR1
Description: (§2) In vitro passive permeability or the ability to serve as a P-glycoprotein (P-gp) transport substrate was tested using MDCK cells (MDCK wild type) or MDCK cells stably transduced with MDRI (MDCK-MDRI), respectively. The permeability experiment was performed in duplicate in a transwell system at a single concentration (5 μM). The cells were incubated for […] Apical-to-basolateral (A to B, A-B) transport and basolateral-to-apical (B to A, B-A) transport of the corresponding compound were determined, and the permeation rate (apparent permeability) (Papp×10^−6 cm/sec) and efflux ratio (Papp (B−A)/Papp (A−B)) of the test compound were calculated.

MDCK-Wild type = assay: in vitro
Description: as §2

[4] = In vitro solubility experiment; type: physicochemical
Description: (§3) Preparation of a standard curve: 10.01 mg of sample was weighed out and placed in a volumetric flask, and the volume was brought to 10 mL with acetonitrile/water (v/v, 9/1) to prepare 1.001 mg/mL of standard solution; the standard solution was then serially diluted to 0.5005 mg/mL, 0.1001 mg/mL, 0.05005 mg/mL, 0.01001 mg/mL, and 0.001001 mg/mL to generate the standard curve, and a linear equation was fitted by taking the peak area of the sample as a vertical axis and the concentration as a horizontal axis.
(§4) Solubility and stability test: 15 mg of sample was added to 3 mL of vehicle (FaSSIF, FeSSIF, SGF, or water) to prepare a corresponding suspension at a target concentration of 5 mg/mL. The prepared suspension was stirred on a shaker (800 rpm) at 37° C. for 0.5 h, and the suspension was then filtered. The filtrate was diluted with a diluent to a corresponding multiple so that the peak height could not exceed the standard curve, and the solubility and purity were detected using HPLC.

[5] = In vitro stability experiment (HPLC purity after stirring in vehicle); type: physicochemical
Description: as §3, §4

recombinant protein MYT1, sequence (Q99640 whole entry): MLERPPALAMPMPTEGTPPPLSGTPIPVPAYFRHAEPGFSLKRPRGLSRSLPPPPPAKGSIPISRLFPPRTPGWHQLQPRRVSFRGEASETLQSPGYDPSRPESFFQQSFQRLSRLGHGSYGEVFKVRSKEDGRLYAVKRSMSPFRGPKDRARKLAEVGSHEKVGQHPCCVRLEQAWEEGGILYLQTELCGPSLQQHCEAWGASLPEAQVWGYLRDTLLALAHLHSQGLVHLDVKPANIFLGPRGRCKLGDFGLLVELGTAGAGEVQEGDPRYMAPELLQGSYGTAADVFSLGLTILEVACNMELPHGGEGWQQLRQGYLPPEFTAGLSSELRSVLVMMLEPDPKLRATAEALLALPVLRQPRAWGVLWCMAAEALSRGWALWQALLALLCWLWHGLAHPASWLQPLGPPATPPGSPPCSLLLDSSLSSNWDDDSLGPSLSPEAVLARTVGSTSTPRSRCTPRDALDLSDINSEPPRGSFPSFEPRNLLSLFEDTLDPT

Cc1cc2c(C(N)=O)c(N)n(-c3c(C)c(O)cc(F)c3C)c2nc1C (single isomer, unassigned) [Compound 2]
IC50 (recombinant protein MYT1): ≤ 0.2 µM
IC50 (MIA PaCa-2 cells [1]): 4.32 µM
IC50 (MIA PaCa-2 cells [2]; read-out: Anti-proliferative activity against MIA PaCa-2 cells (20 nM gemcitabine) IC50, 72 h, intracellular ATP content): 0.018 µM
anti-proliferative activity against MIA PaCa-2 cells in combination with gemcitabine (in words) (MIA PaCa-2 cells [2]): stronger anti-proliferative activity than that of RP-6306
Vdss compared to RP-6306 (in words) [3]: greater increase in Vdss compared to RP-6306
half-life T1/2 compared to RP-6306 (in words) [3]: longer half-life T1/2 compared to RP-6306
AUC0-last ([3]; injection 2 mg/kg): 337.7 ng·h/mL
Cl ([3]; injection 2 mg/kg): 94.4 mL/min/kg
T1/2 ([3]; injection 2 mg/kg): 3.32 h
Vdss ([3]; injection 2 mg/kg): 6.76 L/kg
AUC0-last ([3]; oral administration 10 mg/kg): 638.2 ng·h/mL
Cmax ([3]; oral administration 10 mg/kg): 603.3 ng/mL
F % ([3]; oral administration 10 mg/kg): 44.5%
T1/2 ([3]; oral administration 10 mg/kg): 3.84 h
Papp A-B Mean (MDCK-MDR1): 20.50 10^−6 cm · s^−1
Papp A-B Sample - 01 (MDCK-MDR1): 21.08 10^−6 cm · s^−1
Papp A-B Sample - 02 (MDCK-MDR1): 19.91 10^−6 cm · s^−1
Papp B-A Mean (MDCK-MDR1): 35.01 10^−6 cm · s^−1
Papp B-A Sample - 01 (MDCK-MDR1): 35.27 10^−6 cm · s^−1
Papp B-A Sample - 02 (MDCK-MDR1): 34.76 10^−6 cm · s^−1
permeability compared to RP-6306 (in words) (MDCK-MDR1): superior permeability to that of RP-6306
Papp A-B Mean (MDCK-Wild type): 27.10 10^−6 cm · s^−1
Papp A-B Sample - 01 (MDCK-Wild type): 27.93 10^−6 cm · s^−1
Papp A-B Sample - 02 (MDCK-Wild type): 26.28 10^−6 cm · s^−1
Papp B-A Mean (MDCK-Wild type): 42.24 10^−6 cm · s^−1
Papp B-A Sample - 01 (MDCK-Wild type): 39.97 10^−6 cm · s^−1
Papp B-A Sample - 02 (MDCK-Wild type): 44.50 10^−6 cm · s^−1
permeability compared to RP-6306 (in words) (MDCK-Wild type): superior permeability to that of RP-6306
solubility compared to RP-6306 (in words) ([4]; FaSSIF, FeSSIF, SGF, water, methanol, tetrahydrofuran): higher solubility in various vehicles
Solubility 0.5 h ([4]; FaSSIF, initial pH 6.52, 37° C.): 61 µg/mL (≈ 0.178 mM)
Solubility 0.5 h ([4]; FeSSIF, initial pH 4.98, 37° C.): 327 µg/mL (≈ 0.955 mM)
Solubility 0.5 h ([4]; Methanol): 40568 µg/mL (≈ 118 mM)
Solubility 0.5 h ([4]; SGF, initial pH 1.2, 37° C.): 4865 µg/mL (≈ 14.2 mM)
Solubility 0.5 h ([4]; Tetrahydrofuran): 6114 µg/mL (≈ 17.9 mM)
Solubility 0.5 h ([4]; Water, initial pH 7.7, 37° C.): 270 µg/mL (≈ 0.789 mM)
stability compared to RP-6306 (in words) ([5]; FaSSIF, FeSSIF, water): more stable than RP-6306 in FaSSIF, FeSSIF, and water
HPLC purity (%, 220 nm) 0.5 h ([5]; stability in FaSSIF, initial pH 6.52, 37° C.): 88.76%
HPLC purity (%, 220 nm) 0.5 h ([5]; stability in FeSSIF, initial pH 4.98, 37° C.): 95.98%
HPLC purity (%, 220 nm) 0.5 h ([5]; stability in SGF, initial pH 1.2, 37° C.): 98.69%
HPLC purity (%, 220 nm) 0.5 h ([5]; stability in Water, initial pH 7.7, 37° C.): 96.4%

— US20260001879A1, “COMPOUNDS AS MYT1 INHIBITORS” (WIGEN BIOMMEDICINE TECHNOLOGY (SHANGHAI) CO., LTD., priority 2022, published 2026)
